The results in this text go back to ChEMBL document CHEMBL1123341, “Thromboxane A2 synthase inhibitors. 5-(3-Pyridylmethyl)benzofuran-2-carboxylic acids” (J Med Chem, 1986).

≈ marks a conversion by molar mass, not a printed value.

For assay [1], the target named is T1, Thromboxane-A synthase (Homo sapiens) (UniProt P24557).
T1 sequence (whole entry): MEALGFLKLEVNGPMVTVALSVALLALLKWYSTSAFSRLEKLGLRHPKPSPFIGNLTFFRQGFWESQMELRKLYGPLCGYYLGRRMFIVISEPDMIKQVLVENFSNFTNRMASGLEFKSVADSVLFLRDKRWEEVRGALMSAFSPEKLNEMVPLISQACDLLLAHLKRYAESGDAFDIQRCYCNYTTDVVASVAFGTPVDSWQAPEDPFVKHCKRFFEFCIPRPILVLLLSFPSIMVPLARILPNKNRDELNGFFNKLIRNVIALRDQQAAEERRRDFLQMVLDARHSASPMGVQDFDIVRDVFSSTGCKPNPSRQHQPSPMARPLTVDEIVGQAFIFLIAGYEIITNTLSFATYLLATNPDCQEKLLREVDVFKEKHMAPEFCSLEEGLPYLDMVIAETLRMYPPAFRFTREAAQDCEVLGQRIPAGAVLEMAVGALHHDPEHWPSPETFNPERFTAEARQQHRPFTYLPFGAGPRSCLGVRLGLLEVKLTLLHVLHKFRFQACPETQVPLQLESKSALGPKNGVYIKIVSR
In words: Compound was tested in vitro for its ability to inhibit TXA2 biosynthesis in human microsomal platelets. It is filed as functional, microsomes. The following applies: Microsome.

For assay [2], the target named is T1, Thromboxane-A synthase (Homo sapiens). In words: In vitro inhibition of TXA2 biosynthesis in human microsomal platelets. The following applies: Microsome. It counts as functional, microsomes.
The target is the same in assay [3]. As to the kind of experiment: In vitro inhibition of TXA2 biosynthesis in human microsomal platelets relative to Sodium Furegrelate. It is filed as functional, microsomes. The conditions noted are these: Microsome.
The target is the same in assay [4]. As to the kind of experiment: Compound was tested for thromboxane synthase activity in microsomal preparations from human platelets(HPM). It counts as functional.
Assay [5] concerns Thromboxane-A synthase (Canis lupus familiaris). In words: Compound was tested for thromboxane synthase activity in microsomal preparations from dog lung(DLM).
The test system of assay [6] is Thromboxane-A synthase (Cavia porcellus). As to the kind of experiment: Compound was tested for thromboxane synthase activity in microsomal preparations from guinea pig lung(GPLM).

In assay [1], `CCCCC[C@H](O)/C=C/[C@H]1C2CC(N=N2)[C@@H]1C/C=C\CCCC(=O)O` (some centres not stated) came in with an ED50 of 0.03 µg/mL (≈ 0.0861 µM) and a Relative potency of 0.3.
The matching figures for `O=C(O)c1cc2cc(Cc3ccc(Cl)nc3)ccc2o1`: above 10 µg/mL and below 0.001.
Turning to `Cc1cc(Cc2cccnc2)cc2cc(C(=O)O)oc12`, the ED50 in assay [2] came out at 0.03 µg/mL (≈ 0.112 µM). The compound further gave a Relative potency in assay [3] of 0.3.
In assay [1], `O=C(O)c1cc2cc(Cc3ccc[n+]([O-])c3)ccc2o1` registered an ED50 above 10 µg/mL and a Relative potency below 0.001.
As to `NC(=O)c1cc2cc(Cc3cccnc3)ccc2o1`, the ED50 in assay [2] turned out to be 0.3 µg/mL (≈ 1.19 µM). This compound also came in with a Relative potency in assay [3] of 0.003.
The matching figures for `Cc1c(C(=O)O)oc2ccc(Cc3cccnc3)cc12`: 0.03 µg/mL (≈ 0.112 µM) and 0.3.
On to `O=C(O)c1cc2cc(Cc3cccnc3)ccc2o1`, for which the ED50 in assay [2] and in assay [4] was 0.01 µg/mL (≈ 0.0395 µM) each time.
As for `O=C(O)c1cc2cc(-c3cccnc3)ccc2o1`, the ED50 in assay [2] amounted to 0.03 µg/mL (≈ 0.125 µM). Besides, the Relative potency in assay [3] was determined as 0.3.
Take `O=C(c1cccnc1)c1ccc2oc(C(=O)O)cc2c1`: in assay [2], the ED50 was determined as 3 µg/mL (≈ 11.2 µM). In assay [3], this compound registered a Relative potency of 0.003.
In the same order, the values of `O=C(O)c1cc2ccc(Cc3cccnc3)cc2o1` are 0.03 µg/mL (≈ 0.118 µM) and 0.3.
In the same order, the values of `O=C(O)c1cc2cc(Cc3cnccc3Cl)ccc2o1` are above 10 µg/mL and below 0.0001.
For `C/C(=C\c1ccc(Cc2cccnc2)cc1)C(=O)O`, the ED50 is 0.03 µg/mL (≈ 0.118 µM) in assay [2], 0.03 µg/mL (≈ 0.118 µM) in assay [4], 0.003 µg/mL (≈ 0.0118 µM) in assay [5] and 0.2 µg/mL (≈ 0.79 µM) in assay [6]. In assay [3], this compound registered a Relative potency of 0.3.
On to `O=C(O)c1cc2cc(Cc3cccnc3Cl)ccc2o1`, for which, in assay [1], the ED50 was found to be 0.1 µg/mL (≈ 0.348 µM) and the Relative potency was found to be 0.1.
In assay [2], `O=C(O)c1cc2cc(CCc3cccnc3)ccc2o1` returned an ED50 of 3 µg/mL (≈ 11.2 µM). In assay [3], the Relative potency was 0.003.
In turn, `O=C(O)c1cc2cc(Cc3cccnc3)cc(Br)c2o1` came in with an ED50 in assay [2] of 0.03 µg/mL (≈ 0.0903 µM). The compound further showed a Relative potency in assay [3] of 0.3.
Consider `O=C(O)c1cc2ccc(CCc3cccnc3)cc2o1`, for which the ED50 in assay [2] is 3 µg/mL (≈ 11.2 µM). Moreover, the Relative potency in assay [3] turned out to be 0.003.
In the same order, the values of `COc1cc(Cc2cccnc2)cc2cc(C(=O)O)oc12` are 0.03 µg/mL (≈ 0.106 µM) and 0.3.
